Literature values as cited in US20120269871A1, “SOLID STATE FORMS OF RASAGILINE SALTS” (ACTAVIS GROUP PTC EHF, priority 2009, published 2012).

solubility in ethanol (solvent: ethanol): freely soluble | solubility in isopropanol (solvent: isopropanol): sparingly soluble | solubility in water (solvent: water): freely soluble
SMILES: C#CCN[C@@H]1CCc2ccccc21.CS(=O)(=O)O [Rasagiline mesylate]
